{"source": "patent US20090131537A1", "about": "“Wound healing compositions” (priority 2007, published 2009)", "key": {"HaCat keratinocytes [1]": {"system": "HaCat keratinocytes", "experiment": "clonal growth assay of HaCat keratinocytes with growth factor/retinoid supplements", "format": "cell-based, human", "details": "for keratinocyte clonal growth: FIG. 1", "protocol": "In the following experiment, the effect of on keratinocyte growth of adding single or multiple additives to standard medium (Std) was examined in a clonal growth assay performed according to the methods described previously (Wille et al., 1984). Briefly, a sterile […] plastic disposable Petri dish is seed with 5,000 high cloning HaCat cells, and refed complete (E^+I^+) serum free HECK 109 medium at incubated at 37° C. for 24 to 48 hours. The cells are washed with ice-cold Standard HECK 109 medium and refed various combinations of growth factors and retinyl acetate (RetAC).\nFIG. 1 presents a photograph showing the results of incubating the HaCat seeded clonal assay dishes various supplements. The cells were fixed with 50% ethanol and stained with 0.2% crystal violet stain. This imparts a blue color to the cells. The stained dishes were then photographed.\nIn a second series of experiments the HaCat keratinocyte clonal growth after one day (D1) was compared for the combination: insulin plus retinyl acetate (Ins+Rac, D1) and the combination: EGF plus insulin (EI, D1). […] In these studies, insulin was also a necessary growth factor when used in combination with retinyl acetate. This may reflect the often-observed phenomenon of “carry-over” of bound EGF on cell surface growth factor receptor."}, "HaCat keratinocytes [2]": {"system": "HaCat keratinocytes", "experiment": "inhibition of retinoid-induced autocrine growth of HaCat keratinocytes by receptor tyrosine kinase inhibitor", "format": "cell-based, human", "details": "standard medium + 5 ug/ml insulin + 3×10^−8 M retinyl acetate, d1, FIG. 5", "protocol": "In this experiment a selective inhibitor of receptor tyrosine protein phosphokinase was added to a culture of HaCat keratinocytes immediately prior to replacing the growth factor replete medium with HECK 110 serum free medium containing the combination insulin and retinyl acetate to induce autocrine growth. FIG. 5 presents a photograph showing three culture dishes with the following growth conditions: A. Standard growth medium (Std, d1); B. Standard growth medium containing the combination: 5 ug/ml insulin plus 3×10^−8M retinyl acetate (Ins+RAc, d1) and C. standard medium containing the combination: 5 ug/ml insulin, 3×10^−8M retinyl acetate and 2 uM of receptor tyrosine protein kinase inhibitor (Ins+Rac+RTKI, d1)."}, "HaCat keratinocytes [3]": {"system": "HaCat keratinocytes", "experiment": "wound healing zone (WHZ) wound gap closure in confluent HaCat keratinocyte sheets", "format": "cell-based, human", "details": "for healing of WHZ: 24 hours, with insulin", "protocol": "Keratinocytes were grown in a serum free medium supplemented with 5 ng/ml EGF and 5 ug/ml insulin and 0.2% fetal bovine serum and reseeded at 1×10^5 cells per cm^2 in to 35 mm 2 circular disposable Petri dishes and incubated at 37° C. until the cells completely filled the dish. These confluent cultures were then washed with ice-cold basal MCDB serum free medium and refed a serum free medium of the present invention whose composition is as shown in Table 1. A 2.5 mm linear wound was made across the midline of the diameter of the confluent culture with a 2.5 mm diameter heat-sealed tip of a 9 inch sterile Pasteur pipette. […] Wound of this diameter were routinely and reproducibly made by this technique and allow study of the effect of any agent that might have an effect on wound healing by measuring the delay in time it takes to fill in the wound gap of the WHZ.\nFIG. 6 is a photograph of 9 culture dishes fixed with 50% ethanol and stained with 0.2% crystal violet 24 hours after forming the WHZ and incubated in the serum free medium of this invention containing varying doses of retinyl acetate. The experiment was performed in duplicate dishes. There is only one dish labeled 3E-5 as its duplicate was contaminated with mold and was eliminated. Control dishes were refed serum free medium supplemented with insulin but no retinyl acetate. All of the other dishes were r3efed serum free medium with insulin and increasing amount of retinyl acetate. The mi9d line WHZ was filled by epidermal keratinocyte migration and cell growth in all of the dishes except for cultures that had retinyl acetate at concentrations greater than 3×10^−6 M.\nFIG. 7 show photomicrographs comparing wound closure in the WHZ for cultures of HaCat keratinocytes fixed and stained with crystal violet stain and photographed with bright field illumination."}, "c-neu": {"system": "c-neu", "experiment": "indirect immunofluorescence c-neu staining of keratinocytes propagated with retinoic acid", "format": "cell-based, human", "details": "5×10^−8 M all-trans retinoic acid", "text": "In order to determine whether retinoids like retinyl acetate induced autocrine secretion of an EGF-like protein growth factor that binds to an EGF-like cell surface receptor, we designed an experiment using the erbB antibody purchased from Oncogene Sciences (Manhasset, N.Y.) and performed indirect immunofluoresnce (IIF) cytochemistry on fixed normal human neonatal foreskin keratinocytes prepared according to previous studies (Wille et al., 1984). The technique of indirect immunofluorescene was performed according to the antibody manufacturers instructions for c-neu antibody. The neu oncogene was discovered after serial transformation of cells using rat neuroblastoma DNA. The isolated oncogene hybridizes with v-erbB and has 50% homology to the normal EGF receptor, a tyrosine kinase type enzyme protein. The proto-oncogene for neu is designated c-erb-2.\nNormal human keratinocytes were propagated in a serum free medium composition containing 5×10.up.−8M all-trans retinoic acid, fixed and prepared for c-neu staining and detection by IIF as described in Experiment 1. […] We interpret this to mean that retinoid stimulation of autocrine growth proceeds through phosphorylation of an EGF-like receptor at points of cell-to-cell contact, which usually is only seen is post-mitotic suprabasal cells."}, "[4]": {"system": "adult human keratinocytes", "details": "cited from earlier work"}, "[5]": {"system": "normal human keratinocytes", "details": "added to serum free growth factor supplemented medium; cited from earlier work"}}, "note": "Entries after “also recorded” stand apart in the source; their conditions may differ. Read-outs that look alike come from different tables or passages of the source.", "data": [{"compound": "CC(=O)OC/C=C(C)/C=C/C=C(C)/C=C/C1=C(C)CCCC1(C)C", "note": "(racemic) [retinyl acetate]", "values": [{"measurement": "keratinocyte clonal growth after one day (D1) compared with EGF plus insulin", "setting": "HaCat keratinocytes [1]; 5 ug/ml insulin + 3×10^−8 M retinyl acetate, D1, FIG. 2", "value": "stimulated keratinocyte growth as well as the combination (EI)"}, {"measurement": "keratinocyte clonal growth", "setting": "HaCat keratinocytes [1]; standard medium (Std) + 3×10^−8 M retinyl acetate alone", "value": "little if any keratinocyte growth"}, {"measurement": "keratinocyte clonal growth", "setting": "HaCat keratinocytes [1]; standard medium + 5 ug/ml insulin and 3×10^−8 M retinyl acetate", "value": "sufficient to support the growth; also recorded: the best result was stimulation of keratinocyte growth"}, {"measurement": "HaCat growth, dish B versus dishes A and C", "setting": "HaCat keratinocytes [2]", "value": "significant growth"}, {"measurement": "healing of WHZ", "setting": "HaCat keratinocytes [3]; 3×10^−5 M retinyl acetate", "value": "incomplete healing; also recorded: no healing; also recorded: complete failure to fill in the WHZ gap"}, {"measurement": "healing of WHZ", "setting": "HaCat keratinocytes [3]; 3×10^−6 M retinyl acetate", "value": "incomplete healing"}, {"measurement": "healing in the WHZ", "setting": "HaCat keratinocytes [3]; 3×10^−7 M retinyl acetate", "value": "~100", "unit": "%"}, {"measurement": "healing of WHZ", "setting": "HaCat keratinocytes [3]; 3×10^−7 M retinyl acetate", "value": "complete wound healing"}, {"measurement": "healing of WHZ", "setting": "HaCat keratinocytes [3]; 3×10^−8 M retinyl acetate", "value": "complete healing"}]}, {"compound": "insulin: protein growth factor insulin, supplement of serum free medium", "values": [{"measurement": "keratinocyte clonal growth", "setting": "HaCat keratinocytes [1]; standard medium + insulin 5 ug/ml only (Std+Ins)", "value": "less effective; also recorded: stimulated to grow"}]}, {"compound": "CC1=C(/C=C/C(C)=C/C=C/C(C)=C/C(=O)O)C(C)(C)CCC1", "note": "[all-trans retinoic acid]", "values": [{"measurement": "c-neu staining pattern", "setting": "c-neu; no alkaline phosphatase pre-treatment, FIG. 4A", "value": "virtually all of the positive staining was strictly localized to focal adherence areas"}, {"measurement": "c-neu phosphorylation", "setting": "c-neu; with alkaline phosphatase pretreatment, FIG. 4B", "value": "induced a labile phosphorylation of c-neu only at the focal adherence sites"}, {"measurement": "effect on keratinocyte growth", "setting": "[4]; concentrations lower than the optimal 0.5 ng/ml", "value": "ineffective"}, {"measurement": "effect on keratinocyte growth", "setting": "[4]; growth factor deficient medium, growth arrested cells, 0.1-2.5 ng/ml", "value": "stimulated growth"}, {"measurement": "optimal concentration required to produce the growth stimulation", "setting": "[4]; growth factor deficient medium", "value": 0.5, "unit": "ng/mL"}, {"measurement": "effect on keratinocyte proliferation", "setting": "[4]; growth factor-supplemented medium, 0.1-2.5 ng/ml", "value": "inhibited proliferation"}, {"measurement": "rate of keratinocyte proliferation relative to maximal rate in growth factor supplemented medium", "setting": "[4]; retinoid-stimulated cultures, growth factor deficient medium", "value": "approximately 35%"}, {"measurement": "effect on clonal growth", "setting": "[5]", "value": "inhibits the clonal growth"}]}]}
